Reference: patent US6855730B2, “3-methylidenyl-2-indolinone modulators of protein kinase” (Sugen, Inc., priority 1998, dated 2005)

Molecular target: EGFR (Homo sapiens, UniProt P00533)
Test: EGFR assay (cellular ELISA, NIH 3T3/C7 cells)
Assay type: cell-based
Design: expressed in transfected cells; host or cells: NIH 3T3/C7
Settings: read-out: cell EGF IC50
Experimental: EGF Receptor kinase activity in cells genetically engineered to express human EGF-R can be measured as described below:
Materials and Reagents. • a. […] 05-101 (UBI) (a monoclonal antibody recognizing an EGFR extracellular domain). • c. Anti-phosphotyosine antibody (anti-Ptyr) (polyclonal). • d. Detection antibody: Goat anti-rabbit IgG horse radish peroxidase conjugate, TAGO, Inc. Burlingame, Calif. • e. TBST buffer:
• Keep solution in dark at 4° C. until used. • h. Stock reagents of:
Pre-coat ELISA Plate • 1. […] Coated plates are good for up to 10 days when stored at 4° C. • 2. On day-of use, remove coating buffer and replace with blocking buffer (5% Carnation Instant NonFat Dry Milk in PBS). Incubate the plate, shaking, at room temperature (about 23° C. to 25° C.) for 30 minutes. Just prior to use, remove blocking buffer and wash plate 4 times with TBST buffer.
Seeding Cells • 1. […] Choose dishes having 80-90% confluence for the experiment. Trypsinize cells and stop reaction by adding 10% CS DMEM medium. Suspend cells in DMEM medium (10% CS DMEM medium) and centrifuge once at 1000 rpm at room temperature for 5 minutes. • 3. Resuspend cells in seeding medium (DMEM, 0.5% bovine serum), and count the cells using trypan blue. Viability above 90% is acceptable. Seed cells in DMEM medium (0.5% bovine serum) at a density of 10,000 cells per well, 100 μl per well, in a 96 well microtiter plate. Incubate seeded cells in 5% CO2 at 37° C. for about 40 hours.
Assay Procedures. • 1. Check seeded cells for contamination using an inverted microscope. Dilute test compounds stock (10 mg/ml in DMSO) 1:10 in DMEM medium, then transfer 5 μl to a test well for a test compounds drug dilution of 1:200 and a final DMSO concentration of 1%. Control wells receive DMSO alone. Incubate in 5% CO2 at 37° C. for one hour. • 2. Prepare EGF ligand: dilute stock EGF in DMEM so that upon transfer of 10 μl dilute EGF (1:12 dilution), 25 nM final concentration is attained. • 3. Prepare fresh 10 ml HNTG* sufficient for 100 μl per well wherein HNTG* comprises: HNTG stock (2.0 ml), milli-Q H2O (7.3 ml), EDTA, 100 mM, pH 7.0 (0.5 ml), Na3VO4 0.5 M (0.1 ml) and Na4(P2O7), 0.2 M (0.1 ml). • 4. Place on ice. • 5. After two hours incubation with drug, add prepared EGF ligand to cells, 10 μl per well, to yield a final concentration of 25 nM. Control wells receive DMEM alone. Incubate, shaking, at room temperature, for 5 minutes. • 6. Remove test compound, EGF, and DMEM. Wash cells twice with PBS. Transfer HNTG* to cells, 100 μl per well. Place on ice for 5 minutes. Meanwhile, remove blocking buffer from other ELISA plate and wash with TBST as described above. • 7. With a pipette tip securely fitted to a micropipettor, scrape cells from plate and homogenize cell material by repeatedly aspirating and dispensing the HNTG* lysis buffer. Transfer lysate to a coated, blocked, and washed ELISA plate. Incubate shaking at room temperature for one hour. • 8. Remove lysate and wash 4 times with TBST. Transfer freshly diluted anti-Ptyr antibody to ELISA plate at 100 μl per well. Incubate shaking at room temperature for 30 minutes in the presence of the anti-Ptyr antiserum (1:3000 dilution in TBST). • 9. Remove the anti-Ptyr antibody and wash 4 times with TBST. Transfer the freshly diluted TAGO 30 anti-rabbit IgG antibody to the ELISA plate at 100 μl per well. Incubate shaking at room temperature for 30 minutes (anti-rabbit IgG antibody: 1:3000 dilution in TBST). • 10. Remove detection antibody and wash 4 times with TBST. Transfer freshly prepared ABTS/H2O2 solution to ELISA plate, 100 μl per well. Incubate at room temperature for 20 minutes. ABTS/H2O2 solution: 1.2 μl 30% H2O2 in 10 ml ABTS stock. • 11. Stop reaction by adding 50 μl 5N H2SO4 (optional), and determine O.D. at 410 nm. • 12. The maximal phosphotyrosine signal is determined by subtracting the value of the negative controls from the positive controls. […]

EGFR, sequence (P00533 25-1210): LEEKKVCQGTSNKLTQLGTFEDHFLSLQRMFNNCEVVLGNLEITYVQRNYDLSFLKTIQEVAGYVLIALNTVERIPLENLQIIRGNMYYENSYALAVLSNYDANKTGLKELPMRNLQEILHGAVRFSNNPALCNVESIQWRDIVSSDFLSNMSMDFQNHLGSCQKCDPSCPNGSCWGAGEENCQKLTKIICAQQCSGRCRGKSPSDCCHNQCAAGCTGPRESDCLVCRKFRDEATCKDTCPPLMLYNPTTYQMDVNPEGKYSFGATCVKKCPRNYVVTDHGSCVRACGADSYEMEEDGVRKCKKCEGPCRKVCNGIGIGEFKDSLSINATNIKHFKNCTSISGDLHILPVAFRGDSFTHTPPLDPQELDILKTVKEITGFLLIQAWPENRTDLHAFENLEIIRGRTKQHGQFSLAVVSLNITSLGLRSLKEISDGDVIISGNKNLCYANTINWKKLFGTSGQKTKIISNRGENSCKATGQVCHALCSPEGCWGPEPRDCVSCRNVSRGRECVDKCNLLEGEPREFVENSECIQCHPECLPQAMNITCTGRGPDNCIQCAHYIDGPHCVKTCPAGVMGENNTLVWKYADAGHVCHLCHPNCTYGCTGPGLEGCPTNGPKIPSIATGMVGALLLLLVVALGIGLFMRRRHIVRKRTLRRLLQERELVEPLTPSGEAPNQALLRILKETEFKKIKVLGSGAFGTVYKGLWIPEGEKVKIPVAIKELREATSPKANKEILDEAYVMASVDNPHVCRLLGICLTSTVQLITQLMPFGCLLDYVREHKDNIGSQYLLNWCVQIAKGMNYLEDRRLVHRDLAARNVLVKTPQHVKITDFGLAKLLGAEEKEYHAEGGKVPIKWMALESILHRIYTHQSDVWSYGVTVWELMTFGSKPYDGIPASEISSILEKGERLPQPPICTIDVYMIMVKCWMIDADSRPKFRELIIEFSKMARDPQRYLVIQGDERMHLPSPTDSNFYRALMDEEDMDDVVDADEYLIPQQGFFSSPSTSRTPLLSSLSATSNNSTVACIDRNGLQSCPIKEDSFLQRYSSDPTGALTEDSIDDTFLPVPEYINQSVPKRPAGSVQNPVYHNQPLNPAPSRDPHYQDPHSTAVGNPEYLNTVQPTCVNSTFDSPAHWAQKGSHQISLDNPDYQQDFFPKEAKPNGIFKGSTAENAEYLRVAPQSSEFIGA

SMILES | IC50 [µM]
O=C1Nc2ccc(Cl)cc2/C1=C\c1ccc2c(c1)CCO2 [Example 14, 5-Chloro-3-(2,3-dihydro-benzofuran-5-ylmethylene)-1,3-dihydroindol-2-one] | > 100
COc1c(C(C)C)cc(/C=C2/C(=O)Nc3cc(F)ccc32)cc1C(C)C [Example 22, 3-(3,5-Diisopropyl-4-methoxybenzylidene)-6-fluoro-1,3-dihydroindol-2-one] | > 100
CCc1ccc2c(c1)/C(=C\c1cc(C(C)C)c(OC)c(C(C)C)c1)C(=O)N2 [Example 28, 3-(3,5-Diisopropyl-4-methoxbenzylidene)-5-ethyl-1,3-dihydroindol-2-one] | > 100
COc1c(C(C)C)cc(/C=C2/C(=O)Nc3cc(N)ccc32)cc1C(C)C [Example 32, 6-Amino-3-(3,5-diisoprotyl-4-methoxy-benzylidene)-1,3-dihydroindol-2-one] | > 100
COc1ccc(/C=C2/C(=O)Nc3ccc(F)cc32)cc1-c1ccccc1 [Example 37, 5-Fluoro-3-(6-methoxybiphenyl-3-ylmethylene)-1,3-dihydroindol-2-one] | > 100
COc1ccc(/C=C2\C(=O)Nc3cccc(C)c32)cc1C(C)C [Example 38, 3-(3-Isopropyl-4-methoxybenzylidene)-4-methyl-1,3-dihydroindol-2-one] | > 100
Cc1cccc2c1/C(=C/c1ccc3c(c1)CCC(C)(C)O3)C(=O)N2 [Example 41, 3-(2,2-Dimethylchroman-6-ylmethylene)-4-methyl-1,3-dihydroindol-2-one] | > 100
O=C1Nc2ccc(F)cc2/C1=C\c1ccc2c(c1)CCO2 [Example 42, 3-(2,3-Dihydrobenzofuran-5-ylmethylene)-5-fluoro-1,3-dihydroindol-2-one] | > 100
COc1ccc(/C=C2/C(=O)Nc3ccc(F)cc32)cc1C1CCCCC1 [Example 43, 3-(3-Cyclohexyl-4-methoxybenzylidene)-5-fluoro-1,3-dihydroindol-2-one] | > 100
COc1ccc(/C=C2/C(=O)Nc3ccc(F)cc32)cc1C(C)C [Example 44, 5-Fluoro-3-(3-isopropyl-4-methoxybenzylidene)-1,3-dihydroindol-2-one] | 76.9
COc1cc(C)c(/C=C2/C(=O)Nc3ncccc32)cc1C(C)C [Example 45, 3-(5-Isopropyl-4-methoxy-2-methylbenzylidene)-1,3-dihydro-pyrrolo[2,3-b]pyridin-2-one] | > 100
COc1ccc(/C=C2\C(=O)Nc3cccc(C)c32)cc1C1CCCC1 [Example 48, 3-(3-Cyclopentyl-4-methoxybenzylidene)-4-methyl-1,3-dihydroindol-2-one] | > 100
CC(=O)Nc1ccc2c(c1)NC(=O)/C2=C/c1ccc(OCCN2CCOCC2)c(-c2ccsc2)c1 [Example 50, N-{3-[4-(2-Morpholin-4-ylethoxy)-3-thiophen-3-ylbenzylidene]-2-oxo-2,3-dihydro-1H-indol-6-yl}-acetamide] | > 100
COc1c(C(C)C)cc(/C=C2/C(=O)Nc3cc(NC(=O)OC(C)(C)C)ccc32)cc1C(C)C [Example 52, [3-(3,5-Diisopropyl-4-methoxybenzylidene)-2-oxo-2,3-dihydro-1H-indol-6-yl]-carbamic acid tert-butyl ester] | > 100
COc1c(C(C)C)cc(/C=C2\C(=O)Nc3cccc(C)c32)cc1C(C)C [Example 53, 3-(3,5-Diisopropyl-4-methoxybenzylidene)-4-methyl-1,3-dihydroindol-2-one] | 85
COc1c(C(C)C)cc(/C=C2/C(=O)Nc3ccc(Br)cc32)cc1C(C)C [Example 54, 5-Bromo-3-(3,5-diisopropyl-4-methoxybenzylidene)-1,3-dihydroindol-2-one] | 79.3

SMILES | IC50 [µM]
CC(=O)Nc1ccc2c(c1)NC(=O)/C2=C/c1ccc(OCCN2CCOCC2)c(C(C)(C)C)c1 [Example 55, N-{3-[3-tert-Butyl-4-(2-morpholin-4-ylethoxy)-benzylidene]-2-oxo-2,3-dihydro-1H-indol-6-yl}-acetamide] | 78.4
COc1ccc2c(c1)NC(=O)/C2=C/c1ccc(OC)c(-c2ccsc2)c1 [Example 64, 6-Methoxy-3-(4-methoxy-3-thiophen-3-ylbenzylidene)-1,3-dihydroindol-2-one] | > 100
COc1ccc(/C=C2/C(=O)Nc3ccccc32)cc1-c1ccccc1 [Example 65, 3-(6-Methoxybiphenyl-3-ylmethylene)-1,3-dihydroindol-2-one] | > 100
O=C1Nc2ccccc2/C1=C\c1ccc2c(c1)CCO2 [Example 66, 3-(2,3-Dihydrobenzofuran-5-ylmethylene)-1,3-dihydroindol-2-one] | > 100
COc1ccc(/C=C2/C(=O)Nc3ccc(Cl)cc32)cc1-c1ccccc1 [Example 67, 5-Chloro-3-(6-methoxybiphenyl-3-ylmethylene)-1,3-dihydroindol-2-one] | > 100
COc1ccc(/C=C2\C(=O)Nc3cccc(C)c32)cc1C1CCCCC1 [Example 68, 3-(3-Cyclohexyl-4-methoxybenzylidene)-4-methyl-1,3-dihydroindol-2-one] | > 100
Cc1cccc2c1/C(=C/c1ccc3c(c1)CCO3)C(=O)N2 [Example 69, 3-(2,3-Dihydrobenzofuran-5-ylmethylene)-4-methyl-1,3-dihydroindol-2-one] | > 100
COc1ccc(/C=C2/C(=O)Nc3ncccc32)cc1C(C)C [Example 70, 3-(3-Isopropyl-4-methoxybenzylidene)-1,3-dihydropyrrolo[2,3-b]pyridine-2-one] | > 100
COc1ccc(/C=C2/C(=O)Nc3ncccc32)cc1-c1ccccc1 [Example 71, 3-(6-Methoxybiphenyl-3-ylmethylene)-1,3-dihydropyrrolo[2,3-b]pyridin-2-one] | > 100
COc1ccc(/C=C2/C(=O)Nc3ncccc32)cc1C1CCCCC1 [Example 72, 3-(3-Cyclohexyl-4-methoxybenzylidene)-1,3-dihydropyrrolo[2,3-b]pyridin-2-one] | > 100
O=C1Nc2ncccc2/C1=C\c1ccc2c(c1)CCO2 [Example 73, 3-(2,3-Dihydrobenzofuran-5-ylmethylene)-1,3-dihydropyrrolo[2,3-b]pyridin-2-one] | > 50
COc1c(C(C)C)cc(/C=C2/C(=O)Nc3ncccc32)cc1C(C)C [Example 74, 3-(3,5-Diisopropyl-4-methoxybenzylidene)-1,3-dihydropyrrolo[2,3-b]pyridin-2-one] | > 100
Cc1cc(CCC(=O)O)c(/C=C2\C(=O)Nc3cc(-c4ccc(F)cc4)ccc32)[nH]1 [Example 107, 3-{2-[6-(4-Fluorophenyl)-2-oxo-1,2-dihydroindol-3-ylidenemethyl]-5-methyl-1H-pyrrol-3-yl}propionic acid] | > 100
CCOC(=O)c1c(C)[nH]c(/C=C2\C(=O)Nc3cc(-c4ccc(F)cc4)ccc32)c1CCC(=O)O [Example 108, 4-(2-Carboxyethyl)-5-[6-(4-fluorophenyl)-2-oxo-1,2-dihydro-indol-3-ylidenemethyl]-2-methyl-1H-pyrrole-3-carboxylic acid ethyl ester] | > 100
COc1ccccc1-c1ccc2c(c1)NC(=O)/C2=C\c1[nH]c(C)cc1CCC(=O)O [Example 109, 3-{2-[6-(2-Methoxyphenyl)-2-oxo-1,2-dihydroindol-3-ylidenemethyl]-5-methyl-1H-pyrrol-3-yl}-propionic acid] | > 100
